This note sets out measurements from patent US11667602B2, “Compounds and their use” (AstraZeneca AB, priority 2020, dated 2023).

This test deals with T1, human RXFP1 (Homo sapiens, UniProt Q9HBX9).
T1 sequence (Q9HBX9 1-757): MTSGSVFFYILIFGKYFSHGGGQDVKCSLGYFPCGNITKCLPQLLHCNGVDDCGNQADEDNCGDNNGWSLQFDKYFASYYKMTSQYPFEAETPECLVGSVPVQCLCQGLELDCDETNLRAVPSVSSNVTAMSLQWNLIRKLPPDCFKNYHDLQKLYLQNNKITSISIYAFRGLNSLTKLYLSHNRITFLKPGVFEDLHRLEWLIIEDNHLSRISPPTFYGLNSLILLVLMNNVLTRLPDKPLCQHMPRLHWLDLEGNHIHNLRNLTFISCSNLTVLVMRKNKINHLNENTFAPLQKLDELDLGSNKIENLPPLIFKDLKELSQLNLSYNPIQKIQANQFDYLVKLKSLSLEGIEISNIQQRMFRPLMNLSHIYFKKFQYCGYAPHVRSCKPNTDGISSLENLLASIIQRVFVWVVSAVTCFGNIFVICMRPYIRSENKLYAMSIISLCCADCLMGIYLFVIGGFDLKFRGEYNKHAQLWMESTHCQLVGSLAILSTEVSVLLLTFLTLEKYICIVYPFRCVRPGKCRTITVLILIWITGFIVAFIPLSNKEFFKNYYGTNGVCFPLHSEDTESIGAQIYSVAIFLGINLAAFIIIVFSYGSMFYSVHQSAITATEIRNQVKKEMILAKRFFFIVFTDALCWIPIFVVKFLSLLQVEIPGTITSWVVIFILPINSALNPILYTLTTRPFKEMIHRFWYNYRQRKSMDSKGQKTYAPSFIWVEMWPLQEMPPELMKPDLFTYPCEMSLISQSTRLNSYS
The test can be described thus: RXFP1 Hu cAMP (Test A). It is filed as cell-based. Further details: expressed in transfected cells; host or cells: Jump-In T-REx CHO-K1 cells (ThermoFisher), induced with 10 ng/ml doxycycline for 24 h. The settings on record: RXFP1 Hu cAMP; for EC50: read-out: Test A EC50. An excerpt:
To screen for modulators of hRXFP1, an assay identifying compounds that stimulate cAMP production via the Gs-coupled hRXFP1 receptor was used. cAMP HiRange HTRF kit (available from CisBio Bioassays, France; catalogue number 62AM6PEJ) was employed in large according to manufacturer's recommendations for detection of cAMP. The HTRF method is a competitive immunoassay between native cAMP produced by cells and cAMP labeled with the dye d2. The tracer binding is visualized with a cryptate labeled antibody for cAMP and the signal is thus inversely proportional to the amount of produced cAMP.
Cells: Jump-In™ T-REx™ CHO-K1 Cells (ThermoFisher) stably transfected with human RXFP1 was employed. Cells were induced to express human RXFP1 by treatment with 10 ng/ml doxycycline for 24 h. Cells were then cryopreserved for long term storage.
HTRF detection reagents: cAMP-d2 and anti-cAMP cryptate reconstituted according to CisBio instructions were diluted 1:40 in lysis buffer provided with the HTRF-kit.
3. 4 μL assay buffer with 1 mM IBMX (0.5 mM final concentration) to block phosphodiesterases was added with Multidrop Combi (ThermoFisher).
6. 4 μL cAMP-d2 in lysis buffer was added with Multidrop Combi.
7. 4 μL anti-cAMP cryptate in lysis buffer was added with Multidrop Combi
8. 2 h incubation at room temperature
Using a cAMP standard curve, HTRF data was converted to amount cAMP produced in the samples which was subsequentially used for calculation of concentration responses. Concentration response data were fitted with a four parameter logistic fit, the Hill equation. The results from the assay are reported in Table 36 as EC50 (μM) and Sinf (%).
Where the assay was run multiple times for the same compound, the geometric mean is reported.
Sinf is the fitted activity level, efficacy, at infinite concentration of test compound. To facilitate comparison of efficacy data, efficacy was normalized to % effect of the response stimulated by a saturating concentration of relaxin (1 nM). Where the assay was run multiple times for the same compound, the arithmetic mean is reported.

Broadly, the EC50 is the concentration giving half of the maximal effect. For `COc1cc(C#N)c(O[C@H]2CC[C@@](C)(C(=O)O)CC2)cc1C(=O)Nc1cc(Cl)ccc1C(=O)NCC1(c2ccccc2)CC1` [Example 158], the “Test A Sinf” value worked out at 118% and the EC50 was found to be 110 nM.
In the same order, the values of `COc1cc(F)c(OC[C@H]2C[C@@H](C(=O)O)C2)cc1C(=O)N[C@@H]1[C@@H]2CC[C@@H](C2)[C@@H]1C(=O)Nc1cccc(S(=O)(=O)C(F)(F)F)c1` [Example 473, (1S,3s)-3-((2-Fluoro-4-methoxy-5-(((1R,2R,3S,4S)-3-((3-((trifluoromethyl)sulfonyl)phenyl)carbamoyl)bicyclo[2.2.1]heptan-2-yl)carbamoyl)phenoxy)methyl)cyclobutane-1-carboxylic acid] are 104% and 140 nM.
For `COc1cc(F)c(C2CCC(C(=O)O)CC2)cc1C(=O)NC1C2CCC(C2)C1C(=O)Nc1cccc(S(=O)(=O)C(F)(F)F)c1` [Example 268, (1S,4s)-4-(2-Fluoro-4-methoxy-5-(((1S,2R,3S,4R)-3-((3-((trifluoromethyl)sulfonyl)phenyl)carbamoyl)bicyclo[2.2.1]heptan-2-yl)carbamoyl)phenyl)cyclohexane-1-carboxylic acid], the “Test A Sinf” value was found to be 84% and the concentration giving a half-maximal response (EC50) is 860 nM.
`COc1cc(F)c(-c2ccc(C(=O)O)cc2)cc1C(=O)N[C@H]1[C@@H](C(=O)N[C@@H]2CCCN(S(=O)(=O)C(F)(F)F)C2)[C@@H]2C=C[C@H]1C2` (racemic) [Example 312]: the “Test A Sinf” value is on record as 50% and the EC50 was found to be 7500 nM.
With `COc1cc(F)c(O[C@H]2C[C@@H](CC(=O)O)C2)cc1C(=O)N[C@@H]1[C@@H]2CC[C@@H](C2)[C@@H]1C(=O)Nc1cccc(S(=O)(=O)C(F)(F)F)c1` [Example 475, 2-((1S,3s)-3-(2-Fluoro-4-methoxy-5-(((1R,2R,3S,4S)-3-((3-((trifluoromethyl)sulfonyl)phenyl)carbamoyl)bicyclo[2.2.1]heptan-2-yl)carbamoyl)phenoxy)cyclobutyl)acetic acid], the “Test A Sinf” value came to 100% and the concentration giving a half-maximal response (EC50) is 200 nM.
With `COc1cc(F)c(-c2ccc(C(=O)O)cc2)cc1C(=O)N[C@H]1[C@@H](C(=O)Nc2cc(F)cc(S(F)(F)(F)(F)F)c2)[C@@H]2C=C[C@H]1C2` (racemic) [Example 298], the “Test A Sinf” value is reported as 82% and the EC50 came to 910 nM.
Regarding `COc1cc(C#N)c(O[C@H]2CC[C@@](C)(C(=O)O)CC2)cc1C(=O)Nc1cc(C)ccc1C(=O)N[C@H]1CC[C@H](C)CC1` [Example 169], the “Test A Sinf” value was determined as 111% and the EC50 is 270 nM.
Take `COc1cc(F)c(O[C@H]2CC[C@@H](S(N)(=O)=O)CC2)cc1C(=O)N[C@@H]1[C@@H]2CC[C@@H](C2)[C@@H]1C(=O)Nc1cccc(S(=O)(=O)C(F)(F)F)c1` [Example 463, (1S,2S,3R,4R)-3-(4-Fluoro-2-methoxy-5-(((1s,4S)-4-sulfamoylcyclohexyl)oxy)benzamido)-N-(3-((trifluoromethyl)sulfonyl)phenyl)bicyclo[2.2.1]heptane-2-carboxamide]: the “Test A Sinf” value worked out at 111% and the EC50 was 340 nM.
In the case of `CC1(CNC(=O)[C@H]2[C@@H]3CC[C@@H](C3)[C@H]2NC(=O)c2cc(O[C@H]3CC[C@@](C)(C(=O)O)CC3)c(F)cc2Cl)CCC1` [Example 398, (1S,4s)-4-(4-Chloro-2-fluoro-5-(((1S,2R,3S,4R)-3-(((1-methylcyclobutyl)methyl)carbamoyl)bicyclo[2.2.1]heptan-2-yl)carbamoyl)phenoxy)-1-methylcyclohexane-1-carboxylic acid], the “Test A Sinf” value worked out at 90% and the EC50 was 130 nM.
Take `COc1cc(F)c(O[C@H]2CC[C@@](C)(C(=O)O)CC2)cc1C(=O)NC1COCCC1C(=O)Nc1ccc(F)c(S(F)(F)(F)(F)F)c1` (single isomer, unassigned) [Example 574, (1R,4s)-4-(2-Fluoro-5-(((3S*,4S*)-4-((4-fluoro-3-(pentafluoro-λ6-sulfaneyl)phenyl)carbamoyl)tetrahydro-2H-pyran-3-yl)carbamoyl)-4-methoxyphenoxy)-1-methylcyclohexane-1-carboxylic acid]: the concentration giving a half-maximal response (EC50) was greater than 40000 nM.
In the case of `COc1cc(F)c(O[C@H]2CC[C@@](C)(C(=O)O)CC2)cc1C(=O)N[C@@H]1COCC[C@@H]1C(=O)Nc1cccc(S(=O)(=O)C(F)(F)F)c1` (racemic) [Example 340], the “Test A Sinf” value was 100% and the EC50 came out at 1800 nM.
As for `COc1cc(F)c(-c2ccc(OCCCC(=O)O)cc2)cc1C(=O)N[C@@H]1[C@H]2CC[C@H](C2)[C@@H]1C(=O)Nc1cccc(S(=O)(=O)C(F)(F)F)c1` [Example 251, 4-((2′-Fluoro-4′-methoxy-5′-(((1S,2R,3S,4R)-3-((3-((trifluoromethyl)sulfonyl)phenyl)carbamoyl)bicyclo[2.2.1]heptan-2-yl)carbamoyl)-[1,1′-biphenyl]-4-yl)oxy)butanoic acid], the “Test A Sinf” value was 101% and the EC50 is 33 nM.
With `COc1cc(F)c(-c2ccc(C(=O)O)cc2)cc1C(=O)N[C@H]1[C@@H]2CC[C@@H](C2)[C@H]1C(=O)N[C@H]1CCCN(S(=O)(=O)C(F)(F)F)C1` (single isomer, unassigned) [Example 314, 2′-Fluoro-4′-methoxy-5′-(((1R*,2S*,3R*,4S*)-3-(((S)-1-((trifluoromethyl)sulfonyl)piperidin-3-yl)carbamoyl)bicyclo[2.2.1]heptan-2-yl)carbamoyl)-[1,1′-biphenyl]-4-carboxylic acid], the “Test A Sinf” value was 74% and the EC50 was found to be 7800 nM.
In the same order, the values of `COc1cc(F)c(-c2ccc(C(=O)O)cc2F)cc1C(=O)N[C@H]1[C@@H](C(=O)Nc2cccc(S(=O)(=O)C(F)(F)F)c2)[C@@H]2C=C[C@H]1C2` (racemic) [Example 227] are 102% and 420 nM.
As for `COc1cc(F)c(O[C@H]2CC[C@@](C)(C(=O)O)CC2)cc1C(=O)N[C@@H]1[C@H]2CC[C@H](C2)[C@@H]1C(=O)N[C@H]1CCCC1(C)C` (relative stereo) [Example 504, (1S,4s)-4-(5-(((1S,2R,3S,4R)-3-(((R*)-2,2-Dimethylcyclopentyl)carbamoyl)bicyclo[2.2.1]heptan-2-yl)carbamoyl)-2-fluoro-4-methoxyphenoxy)-1-methylcyclohexane-1-carboxylic acid], the “Test A Sinf” value was found to be 91% and the half-maximal effective concentration (EC50) was found to be 600 nM.
Take `COc1cc(F)c(-c2ccc(O)c(C(=O)O)c2)cc1C(=O)N[C@H]1[C@@H]2CC[C@@H](C2)[C@H]1C(=O)Nc1cccc(S(=O)(=O)C(F)(F)F)c1` (single isomer, unassigned) [Example 557]: the “Test A Sinf” value is given as 68%.
As for `COc1cc(C#N)c(O[C@H]2CC[C@@](C)(C(=O)O)CC2)cc1C(=O)N[C@@H]1[C@H]2CC[C@H](C2)[C@@H]1C(=O)NC1CCC(C)(C)CC1` [Example 128], the “Test A Sinf” value was found to be 88% and the 50% effective concentration (EC50) worked out at 46 nM.
The matching figures for `COc1cc(C#N)c(O[C@H]2CC[C@@](C)(C(=O)O)CC2)cc1C(=O)N[C@@H]1[C@H]2CC[C@H](C2)[C@@H]1C(=O)NC1CCCC1` [Example 139]: 95% and 160 nM.
For `CCC(C)(C)NC(=O)c1ccc(Cl)cc1NC(=O)c1cc(O[C@H]2CC[C@@](C)(C(=O)O)CC2)c(C#N)cc1OC` [Example 163], the “Test A Sinf” value turned out to be 151% and the EC50 came to 67 nM.
